{"source": "patent US9211310B2", "about": "“Use of a Chinese medicine composition in preparing medicaments for treating secondary prevention of myocardial infarction” (TASLY PHARMACEUTICAL GROUP CO., LTD, priority 2010, dated 2015)", "tested_on": "patients after acute myocardial infarction", "test": "Life quality, Seattle Angina Questionnaire (SAQ), same clinical trial", "assay_type": "in vivo, human", "conditions": "9 months after treatment", "description": "3508 patients who were in accordance with the diagnostic standards of AMI for 28 days to 2 years and differentiated as Qi deficiency and blood stagnation syndrome by TCM were studied. 0.5 g Chinese medicine composition prepared by the method of EXAMPLE 1 (Coded as QSYQ) was administrated half an hour after meal, 3 times per day.\nThere were 19 questions in the Seattle angina questionnaire (SAQ), including 5 parts: physical limitation (PL), anginal stability (AS), anginal frequency (AF), treatment satisfaction (TS) and disease perception (DP). After being given necessary explanation by doctors, the questions were answered independently by patients.\nThey included the overall survival time, angina pectoris score, TCM symptom score and life quality score, where angina pectoris score, TCM symptom score and life quality score were evaluated at randomization, in 1st, 3rd, 6th, 9th, 12th month after treatment and 18th month after follow-up.\nAll evaluation results of SAQ were described during the period of observation, and Wilcoxon rank sum test was used for inter-group comparison.\nThe evaluation results in the SAQ were depicted in different observations, and inter-group comparison was tested by Wilcoxon Rank-sum test."}
{"smiles": "CC(=O)Oc1ccccc1C(=O)O", "note": "[Control group, aspirine]", "values": [{"measurement": "SAQ Question 1-4: Not limited, number of patients", "setting": "FAS", "result": 797}, {"measurement": "SAQ Question 1-4: Not limited, percent of patients", "setting": "FAS", "result": "(45.70%)"}, {"measurement": "SAQ Question 1-4: Other reasons, number of patients", "setting": "FAS", "result": 10}, {"measurement": "SAQ Question 1-4: Other reasons, percent of patients", "setting": "FAS", "result": "(0.57%)"}, {"measurement": "SAQ Question 1-4: Severely limited, number of patients", "setting": "FAS", "result": 19}, {"measurement": "SAQ Question 1-4: Severely limited, percent of patients", "setting": "FAS", "result": "(1.09%)"}, {"measurement": "SAQ Question 1-4: Slightly limited, number of patients", "setting": "FAS", "result": 569}, {"measurement": "SAQ Question 1-4: Slightly limited, percent of patients", "setting": "FAS", "result": "(32.63%)"}, {"measurement": "SAQ Question 1-5: Mildly limited, number of patients", "setting": "FAS", "result": 284}, {"measurement": "SAQ Question 1-5: Mildly limited, percent of patients", "setting": "FAS", "result": "(16.29%)"}, {"measurement": "SAQ Question 1-5: Moderately limited, number of patients", "setting": "FAS", "result": 103}, {"measurement": "SAQ Question 1-5: Moderately limited, percent of patients", "setting": "FAS", "result": "(5.91%)"}, {"measurement": "SAQ Question 1-5: Not limited, number of patients", "setting": "FAS", "result": 825}, {"measurement": "SAQ Question 1-5: Not limited, percent of patients", "setting": "FAS", "result": "(47.33%)"}, {"measurement": "SAQ Question 1-5: Other reasons, number of patients", "setting": "FAS", "result": 11}, {"measurement": "SAQ Question 1-5: Other reasons, percent of patients", "setting": "FAS", "result": "(0.63%)"}, {"measurement": "SAQ Question 1-5: Severely limited, number of patients", "setting": "FAS", "result": 17}, {"measurement": "SAQ Question 1-5: Severely limited, percent of patients", "setting": "FAS", "result": "(0.98%)"}, {"measurement": "SAQ Question 1-5: Slightly limited, number of patients", "setting": "FAS", "result": 503}, {"measurement": "SAQ Question 1-5: Slightly limited, percent of patients", "setting": "FAS", "result": "(28.86%)"}, {"measurement": "SAQ Question 1-9: Mildly limited, % of cases", "setting": "FAS", "result": "(19.38%)"}, {"measurement": "SAQ Question 1-9: Mildly limited, cases", "setting": "FAS", "result": 332}, {"measurement": "SAQ Question 1-9: Moderately limited, % of cases", "setting": "FAS", "result": "(20.61%)"}, {"measurement": "SAQ Question 1-9: Moderately limited, cases", "setting": "FAS", "result": 353}, {"measurement": "SAQ Question 1-9: Not limited, % of cases", "setting": "FAS", "result": "(3.91%)"}, {"measurement": "SAQ Question 1-9: Not limited, cases", "setting": "FAS", "result": 67}, {"measurement": "SAQ Question 1-9: Other reasons, % of cases", "setting": "FAS", "result": "(5.60%)"}, {"measurement": "SAQ Question 1-9: Other reasons, cases", "setting": "FAS", "result": 96}, {"measurement": "SAQ Question 1-9: Severely limited, % of cases", "setting": "FAS", "result": "(33.39%)"}, {"measurement": "SAQ Question 1-9: Severely limited, cases", "setting": "FAS", "result": 572}, {"measurement": "SAQ Question 1-9: Slightly limited, % of cases", "setting": "FAS", "result": "(17.10%)"}, {"measurement": "SAQ Question 1-9: Slightly limited, cases", "setting": "FAS", "result": 293}, {"measurement": "SAQ 2nd question: Clearly increased, % of cases", "setting": "PP", "result": "(0.63%)"}, {"measurement": "SAQ 2nd question: Clearly increased, cases", "setting": "PP", "result": 9}, {"measurement": "SAQ 2nd question: Clearly reduced, % of cases", "setting": "PP", "result": "(26.01%)"}, {"measurement": "SAQ 2nd question: Clearly reduced, cases", "setting": "PP", "result": 373}, {"measurement": "SAQ 2nd question: Same, % of cases", "setting": "PP", "result": "(34.94%)"}, {"measurement": "SAQ 2nd question: Same, cases", "setting": "PP", "result": 501}, {"measurement": "SAQ 2nd question: Slightly increased, % of cases", "setting": "PP", "result": "(3.21%)"}, {"measurement": "SAQ 2nd question: Slightly increased, cases", "setting": "PP", "result": 46}, {"measurement": "SAQ 2nd question: Slightly reduced, % of cases", "setting": "PP", "result": "(35.22%)"}, {"measurement": "SAQ 2nd question: Slightly reduced, cases", "setting": "PP", "result": 505}, {"measurement": "SAQ 3rd question: 1-2 times per week, % of cases", "setting": "PP", "result": "(35.22%)"}, {"measurement": "SAQ 3rd question: 1-2 times per week, cases", "setting": "PP", "result": 505}, {"measurement": "SAQ 3rd question: 1-3 times per day, % of cases", "setting": "PP", "result": "(3.21%)"}, {"measurement": "SAQ 3rd question: 1-3 times per day, cases", "setting": "PP", "result": 46}, {"measurement": "SAQ 3rd question: <1 time per week, % of cases", "setting": "PP", "result": "(26.01%)"}, {"measurement": "SAQ 3rd question: <1 time per week, cases", "setting": "PP", "result": 373}, {"measurement": "SAQ 3rd question: No onset, % of cases", "setting": "PP", "result": "(0.00%)"}, {"measurement": "SAQ 3rd question: No onset, cases", "setting": "PP", "result": 0}, {"measurement": "SAQ 3rd question: ≧3 times per week, % of cases", "setting": "PP", "result": "(34.94%)"}, {"measurement": "SAQ 3rd question: ≧3 times per week, cases", "setting": "PP", "result": 501}, {"measurement": "SAQ 3rd question: ≧4 times per day, % of cases", "setting": "PP", "result": "(0.63%)"}, {"measurement": "SAQ 3rd question: ≧4 times per day, cases", "setting": "PP", "result": 9}, {"measurement": "SAQ Question 1-3: Mildly limited, number of patients", "setting": "PP", "result": 37}, {"measurement": "SAQ Question 1-3: Mildly limited, percent of patients", "setting": "PP", "result": "(2.57%)"}, {"measurement": "SAQ Question 1-3: Moderately limited, number of patients", "setting": "PP", "result": 10}, {"measurement": "SAQ Question 1-3: Moderately limited, percent of patients", "setting": "PP", "result": "(0.70%)"}, {"measurement": "SAQ Question 1-3: Not limited, number of patients", "setting": "PP", "result": 1187}, {"measurement": "SAQ Question 1-3: Not limited, percent of patients", "setting": "PP", "result": "(82.60%)"}, {"measurement": "SAQ Question 1-3: Other reasons, number of patients", "setting": "PP", "result": 6}, {"measurement": "SAQ Question 1-3: Other reasons, percent of patients", "setting": "PP", "result": "(0.42%)"}, {"measurement": "SAQ Question 1-3: Severely limited, number of patients", "setting": "PP", "result": 1}, {"measurement": "SAQ Question 1-3: Severely limited, percent of patients", "setting": "PP", "result": "(0.07%)"}, {"measurement": "SAQ Question 1-3: Slightly limited, number of patients", "setting": "PP", "result": 196}, {"measurement": "SAQ Question 1-3: Slightly limited, percent of patients", "setting": "PP", "result": "(13.64%)"}, {"measurement": "SAQ Question 1-4: Mildly limited, number of patients", "setting": "PP", "result": 208}, {"measurement": "SAQ Question 1-4: Mildly limited, percent of patients", "setting": "PP", "result": "(14.49%)"}, {"measurement": "SAQ Question 1-4: Moderately limited, number of patients", "setting": "PP", "result": 63}, {"measurement": "SAQ Question 1-4: Moderately limited, percent of patients", "setting": "PP", "result": "(4.39%)"}, {"measurement": "SAQ Question 1-4: Not limited, number of patients", "setting": "PP", "result": 673}, {"measurement": "SAQ Question 1-4: Not limited, percent of patients", "setting": "PP", "result": "(46.90%)"}, {"measurement": "SAQ Question 1-4: Other reasons, number of patients", "setting": "PP", "result": 10}, {"measurement": "SAQ Question 1-4: Other reasons, percent of patients", "setting": "PP", "result": "(0.70%)"}, {"measurement": "SAQ Question 1-4: Severely limited, number of patients", "setting": "PP", "result": 9}, {"measurement": "SAQ Question 1-4: Severely limited, percent of patients", "setting": "PP", "result": "(0.63%)"}, {"measurement": "SAQ Question 1-4: Slightly limited, number of patients", "setting": "PP", "result": 472}]}
